Test system: total serum bilirubin (TSB)
Assay: Phase 2b trial: total serum bilirubin (TSB), adjusted and unadjusted, change from baseline
Assay type: in vivo, human
Set-up: total serum bilirubin / total serum bilirubin, Delta (change from baseline) / Change from baseline of total serum bilirubin: unit not given here
Details: for total serum bilirubin / total serum bilirubin, Delta (change from baseline): 48 hours, preliminary data; for change from baseline in adjusted TSB, LS mean (SEM) / change from baseline in adjusted TSB, LS mean difference versus placebo / change from baseline in unadjusted TSB, LS Mean (SEM) / change from baseline in unadjusted TSB, LS Mean Difference versus placebo / change from baseline in adjusted TSB, LS mean (SEM) (primary endpoint): ANCOVA; for change from baseline in adjusted TSB, LS mean difference versus placebo, MMRM / change from baseline in adjusted TSB, LS means (SEM), MMRM: observed case
Experimental: Three cohorts of subjects were recruited. This clinical study was designed to evaluate safety and efficacy parameters in each cohort.
Scheduled assessments (including TSB) occurred before treatment and at 0.75 and 2 hours (or 1.5 and 3 hours, depending on PK blood sampling assignment); 6, 12, 24, 48, and 72 hours; and 14 and 30 (except TSB) days after treatment or early termination.
The primary efficacy endpoint was the change in adjusted TSB from baseline to 48 hours after treatment. The adjusted TSB was a calculation of the percentage variance of the TSB level from the age specific threshold for PT initiation per the AAP Guidelines, i.e., an indication of the distance below the PT threshold by time.
The Secondary Efficacy Endpoints were the change from baseline in unadjusted TSB at 48 hours after treatment, change from baseline in adjusted and unadjusted TSB at various other time points after treatment, percent change from baseline in unadjusted TSB, proportion of subjects who require PT/exchange transfusion (ET), time to PT/ET, duration of PT and time to hospital discharge.
Intent-to-treat population (ITT): Defined as all subjects who were randomly assigned treatment in the clinical study, had received IMP, and had at least 1 post baseline TSB measurement during the first 48 hours after treatment. Subjects were summarized based on randomized treatment.
Analysis of Efficacy Parameters: The primary efficacy analysis applied the analysis of covariance (ANCOVA) method to determine if there was a significant difference between treatment groups in change in adjusted TSB levels from baseline to 48 hours post baseline after controlling for the effects of gestational age and adjusted baseline TSB levels. If assumptions of ANCOVA appeared to be violated, a Wilcoxon rank-sum test could be performed instead. Time-to-event variables were analyzed using the Kaplan-Meier method, and Kaplan-Meier survival curves were presented.

[1] = 1.5 mg/kg, 6 hrs, unadjusted TSB, ITT Population
[2] = 1.5 mg/kg, 12 hrs, unadjusted TSB, ITT Population
[3] = 1.5 mg/kg, 24 hrs, unadjusted TSB, ITT Population
[4] = 1.5 mg/kg, 48 hrs, unadjusted TSB, ITT Population
[5] = 1.5 mg/kg, baseline, PP Population
[6] = 1.5 mg/kg, baseline, unadjusted TSB, ITT Population
[7] = 3.0 mg/kg IM, 48 h/early termination, ITT, LOCF

With “tin IV mesoporphyrin IX dichloride [Stannsoporfin]” the “6 hrs TSB, Mean (SD)” value [1] was 9.09 (2.175) mg/dL, the “6 hrs TSB, Min” value [1] was 5.1 mg/dL and the “12 hrs Percent Change from Baseline in TSB, Max” value [2] was 73.2%. For the same substance, the “12 hrs Percent Change from Baseline in TSB, Mean (SD)” value [2] was 29.91 (21.467) %, the “12 hrs Percent Change from Baseline in TSB, Min” value [2] was −12.8% and the “12 hrs TSB, Max” value [2] was 14.3 mg/dL. For the same substance, the “12 hrs TSB, Mean (SD)” value [2] was 9.82 (2.599) mg/dL, the “12 hrs TSB, Min” value [2] was 5.6 mg/dL and the “24 hrs Percent Change from Baseline in TSB, Max” value [3] was 66.1%. The “24 hrs Percent Change from Baseline in TSB, Mean (SD)” value [3] was 30.23 (27.126) %, the “24 hrs Percent Change from Baseline in TSB, Median” value [3] was 38.20% and the “24 hrs Percent Change from Baseline in TSB, Min” value [3] was −33.3%. For the same substance, the “24 hrs TSB, Max” value [3] was 12.2 mg/dL, the “24 hrs TSB, Mean (SD)” value [3] was 9.61 (2.566) mg/dL and the “24 hrs TSB, Min” value [3] was 5.2 mg/dL. The “48 hrs Percent Change from Baseline in TSB, Max” value [4] was 82.3%, the “48 hrs Percent Change from Baseline in TSB, Mean (SD)” value [4] was 32.71 (37.298) % and the “48 hrs Percent Change from Baseline in TSB, Min” value [4] was −57.7%. The “48 hrs TSB, Max” value [4] was 13.5 mg/dL, the “48 hrs TSB, Mean (SD)” value [4] was 9.85 (3.208) mg/dL and the “48 hrs TSB, Min” value [4] was 3.3 mg/dL. For the same substance, the “mean TSB levels” value (1.5 mg/kg, 14 days after treatment (text, not LOCF table)) was 3.06 mg/dL, the “Baseline unadjusted TSB, Max” value [5] was 12.0 mg/dL and the “Baseline unadjusted TSB, Mean (SD)” value [5] was 7.52 (2.030) mg/dL. The “Baseline unadjusted TSB, Median” value [5] was 7.35 mg/dL, the “Baseline unadjusted TSB, Min” value [5] was 4.3 mg/dL and the “Baseline TSB, Max” value [6] was 12.0 mg/dL. For the same substance, the “Baseline TSB, Mean (SD)” value [6] was 7.59 (1.816) mg/dL, the “Baseline TSB, Min” value [6] was 4.3 mg/dL and the total serum bilirubin (3.0 mg/kg IM (N = 13), treated per protocol) was 10.53 ± 2.9. For the same substance, the “adjusted TSB, Mean (SD)” value (3.0 mg/kg IM, 6 h, ITT, LOCF) was −13.20 (13.118) %, the “change from baseline in adjusted TSB, Mean (SD)” value (3.0 mg/kg IM, 6 h, ITT, LOCF) was 2.72 (7.274) % and the “change from baseline in adjusted TSB, Median” value (3.0 mg/kg IM, 6 h, ITT, LOCF) was 2.10%. The “change from baseline in unadjusted TSB, Mean (SD)” value (3.0 mg/kg IM, 6 h, ITT, LOCF) was 1.53 (0.762) mg/dL, the “change from baseline in unadjusted TSB, Median” value (3.0 mg/kg IM, 6 h, ITT, LOCF) was 1.35 mg/dL and the “unadjusted TSB, Mean (SD)” value (3.0 mg/kg IM, 6 h, ITT, LOCF) was 9.74 (1.730) mg/dL. The “unadjusted TSB, Median” value (3.0 mg/kg IM, 6 h, ITT, LOCF) was 9.90 mg/dL, the “change from baseline in adjusted TSB, LS mean (SEM)” value (3.0 mg/kg IM, 6 h, ITT, LOCF) was 2.57 (2.186) % and the “change from baseline in adjusted TSB, LS mean difference versus placebo” value (3.0 mg/kg IM, 6 h, ITT, LOCF) was −1.82%. The “change from baseline in unadjusted TSB, LS Mean (SEM)” value (3.0 mg/kg IM, 6 h, ITT, LOCF) was 1.39 (0.254) mg/dL, the “change from baseline in unadjusted TSB, LS Mean Difference versus placebo” value (3.0 mg/kg IM, 6 h, ITT, LOCF) was -0.20 mg/dL and the “change from baseline in adjusted TSB, LS mean difference versus placebo, MMRM” value (“change … LS mean difference versus placebo, MMRM” below) (3.0 mg/kg IM, 6 h, ITT) was −1.69%. For the same substance, the “change from baseline in adjusted TSB, LS means (SEM), MMRM” value (“change from baseline … (SEM), MMRM” below) (3.0 mg/kg IM, 6 h, ITT) was 2.68 (2.252) %, the “adjusted TSB, Mean (SD)” value (3.0 mg/kg IM, 12 h, ITT, LOCF) was −15.06 (13.787) % and the “change from baseline in adjusted TSB, Mean (SD)” value (3.0 mg/kg IM, 12 h, ITT, LOCF) was 0.87 (9.503) %. The “change from baseline in adjusted TSB, Median” value (3.0 mg/kg IM, 12 h, ITT, LOCF) was 1.55%, the “change from baseline in unadjusted TSB, Mean (SD)” value (3.0 mg/kg IM, 12 h, ITT, LOCF) was 2.05 (1.004) mg/dL and the “change from baseline in unadjusted TSB, Median” value (3.0 mg/kg IM, 12 h, ITT, LOCF) was 1.90 mg/dL. The “unadjusted TSB, Mean (SD)” value (3.0 mg/kg IM, 12 h, ITT, LOCF) was 10.26 (1.748) mg/dL, the “unadjusted TSB, Median” value (3.0 mg/kg IM, 12 h, ITT, LOCF) was 10.90 mg/dL and the “change from baseline in adjusted TSB, LS mean (SEM)” value (3.0 mg/kg IM, 12 h, ITT, LOCF) was 2.64 (3.209) %. The “change from baseline in adjusted TSB, LS mean difference versus placebo” value (3.0 mg/kg IM, 12 h, ITT, LOCF) was −4.50%, the “change from baseline in unadjusted TSB, LS Mean (SEM)” value (3.0 mg/kg IM, 12 h, ITT, LOCF) was 2.06 (0.393) mg/dL and the “change from baseline in unadjusted TSB, LS Mean Difference versus placebo” value (3.0 mg/kg IM, 12 h, ITT, LOCF) was -0.54 mg/dL. The “change … LS mean difference versus placebo, MMRM” value (3.0 mg/kg IM, 12 h, ITT) was −5.14%, the “change from baseline … (SEM), MMRM” value (3.0 mg/kg IM, 12 h, ITT) was 0.83 (2.821) % and the “adjusted TSB, Mean (SD)” value (3.0 mg/kg IM, 24 h, ITT, LOCF) was −24.46 (11.302) %. For the same substance, the “change from baseline in adjusted TSB, Mean (SD)” value (3.0 mg/kg IM, 24 h, ITT, LOCF) was −8.53 (16.045) %, the “change from baseline in adjusted TSB, Median” value (3.0 mg/kg IM, 24 h, ITT, LOCF) was −3.10% and the “change from baseline in unadjusted TSB, Mean (SD)” value (3.0 mg/kg IM, 24 h, ITT, LOCF) was 1.85 (1.596) mg/dL. For the same substance, the “change from baseline in unadjusted TSB, Median” value (3.0 mg/kg IM, 24 h, ITT, LOCF) was 2.08 mg/dL, the “unadjusted TSB, Mean (SD)” value (3.0 mg/kg IM, 24 h, ITT, LOCF) was 10.06 (1.757) mg/dL and the “unadjusted TSB, Median” value (3.0 mg/kg IM, 24 h, ITT, LOCF) was 10.45 mg/dL. For the same substance, the “change from baseline in adjusted TSB, LS mean (SEM)” value (3.0 mg/kg IM, 24 h, ITT, LOCF) was −9.21 (4.598) %, the “change from baseline in adjusted TSB, LS mean difference versus placebo” value (3.0 mg/kg IM, 24 h, ITT, LOCF) was −9.12% and the “change from baseline in unadjusted TSB, LS Mean (SEM)” value (3.0 mg/kg IM, 24 h, ITT, LOCF) was 1.67 (0.578) mg/dL. The “change from baseline in unadjusted TSB, LS Mean Difference versus placebo” value (3.0 mg/kg IM, 24 h, ITT, LOCF) was -1.08 mg/dL, the “change … LS mean difference versus placebo, MMRM” value (3.0 mg/kg IM, 24 h, ITT) was −7.01% and the “change from baseline … (SEM), MMRM” value (3.0 mg/kg IM, 24 h, ITT) was −8.57 (3.894) %. The “adjusted TSB, Mean (SD)” value [7] was −31.80 (18.214) %, the “adjusted TSB, Median” value [7] was −24.75% and the “change from baseline in adjusted TSB, Mean (SD)” value (3.0 mg/kg IM, 48 h, ITT, LOCF) was −15.88 (21.406) %. The “change from baseline in adjusted TSB, Median” value (3.0 mg/kg IM, 48 h, ITT, LOCF) was −9.05%, the “change from baseline in unadjusted TSB, Mean (SD)” value (3.0 mg/kg IM, 48 h, ITT, LOCF) was 2.47 (2.703) mg/dL and the “change from baseline in unadjusted TSB, Median” value (3.0 mg/kg IM, 48 h, ITT, LOCF) was 2.94 mg/dL. The “unadjusted TSB, Mean (SD)” value (3.0 mg/kg IM, 48 h, ITT, LOCF) was 10.68 (2.956) mg/dL, the “unadjusted TSB, Median” value (3.0 mg/kg IM, 48 h, ITT, LOCF) was 11.65 mg/dL and the “change from baseline in adjusted TSB, LS mean (SEM) (primary endpoint)” value (3.0 mg/kg IM, 48 h, ITT, LOCF) was −11.60 (5.612) %. The “change from baseline in adjusted TSB, LS mean difference versus placebo” value (3.0 mg/kg IM, 48 h, ITT, LOCF) was −10.02%, the “change from baseline in unadjusted TSB, LS Mean (SEM)” value (3.0 mg/kg IM, 48 h, ITT, LOCF) was 2.90 (0.886) mg/dL and the “change from baseline in unadjusted TSB, LS Mean Difference versus placebo” value (3.0 mg/kg IM, 48 h, ITT, LOCF) was -1.34 mg/dL. The “change from baseline in adjusted TSB, LS mean (SEM) (primary endpoint)” value (3.0 mg/kg IM, 48 h, ITT, LOCF, listed as stannsoporfin) was 11.6%, the “change … LS mean difference versus placebo, MMRM” value (3.0 mg/kg IM, 48 h, ITT) was −9.24% and the “change from baseline … (SEM), MMRM” value (3.0 mg/kg IM, 48 h, ITT) was −15.92 (4.919) %. For the same substance, the total serum bilirubin (3.0 mg/kg IM, intent to treat) was 10.68 ± 3.0, the “total serum bilirubin, Delta (change from baseline)” value (3.0 mg/kg IM, intent to treat) was 2.47 ± 2.7 and the “total serum bilirubin, Delta (change from baseline)” value (3.0 mg/kg IM, treated per protocol) was 2.20 ± 2.9. The “adjusted TSB, Mean (SD)” value (3.0 mg/kg IM, 72 h/early termination, ITT, LOCF) was −42.64 (21.640) %, the “change from baseline in adjusted TSB, Mean (SD)” value (3.0 mg/kg IM, 72 h, ITT, LOCF) was −26.72 (24.245) % and the “change from baseline in adjusted TSB, Median” value (3.0 mg/kg IM, 72 h, ITT, LOCF) was −17.30%.
